Measurements from ChEMBL document CHEMBL5137128, “Daphnoretin Arrests the Cell Cycle and Induces Apoptosis in Human Breast Cancer Cells” (J Nat Prod, 2022).
The source made the active and inactive calls. The calls are words filed in the database; no cut-off is given here.

Assays:
MCF7 [1] = test: Induction of cell cycle arrest in human MCF7 cells assessed as G2/M phase cells at 1 uM incubated for 24 hrs by propidium iodide staining based flow cytometry analysis (reference value: 0.86 %); type: functional
MCF7 [2] = test: Induction of cell cycle arrest in human MCF7 cells assessed as accumulation of S phase cells at 1 uM incubated for 24 hrs by propidium iodide staining based flow cytometry analysis (reference value: 27.84 %); type: functional
MCF7 [3] = test: Induction of cell cycle arrest in human MCF7 cells assessed as G0-G1 phase cells at 1 uM incubated for 24 hrs by propidium iodide staining based flow cytometry analysis (reference value: 71.30 %); type: functional
MCF7 [4] = test: Antiproliferative activity human MCF7 cells assessed as inhibition of cell proliferation incubated for 24 hrs by MTT assay; type: functional, cell-based; settings: MCF7, 24 h
MDA-MB-231 [5] = test: Antiproliferative activity human MDA-MB-231 cells assessed as inhibition of cell proliferation incubated for 24 hrs by MTT assay; type: functional, cell-based; settings: MDA-MB-231, 24 h
MCF7 [6] = test: Antiproliferative activity human MCF7 cells assessed as inhibition of cell proliferation at 0.1 to 8 uM incubated for 48 hrs by MTT assay; type: functional, cell-based; settings: dose 0.1-8 µM
MDA-MB-231 [7] = test: Antiproliferative activity human MDA-MB-231 cells assessed as inhibition of cell proliferation at 0.1 to 8 uM incubated for 48 hrs by MTT assay; type: functional, cell-based; settings: dose 0.1-8 µM
MCF7 [8] = test: Induction of morphological changes in human MCF7 cells assessed as decrease in cell numbers at 1 to 4 uM by electron microscopic analysis; type: functional, cell-based; settings: dose 1-4 µM
MDA-MB-231 [9] = test: Induction of morphological changes in human MDA-MB-231 cells assessed as decrease in cell numbers at 0.5 to 2 uM by electron microscopic analysis; type: functional, cell-based; settings: dose 0.5-2 µM
MCF7 [10] = test: Induction of morphological changes in human MCF7 cells assessed as deformed cells at 1 to 4 uM by electron microscopic analysis; type: functional, cell-based; settings: dose 1-4 µM
MDA-MB-231 [11] = test: Induction of morphological changes in human MDA-MB-231 cells assessed as deformed cells at 0.5 to 2 uM by electron microscopic analysis; type: functional, cell-based; settings: dose 0.5-2 µM
MCF7 [12] = test: Induction of morphological changes in human MCF7 cells assessed as cell shrinkage at 1 to 4 uM by electron microscopic analysis; type: functional, cell-based; settings: dose 1-4 µM
MDA-MB-231 [13] = test: Induction of morphological changes in human MDA-MB-231 cells assessed as cell shrinkage at 0.5 to 2 uM by electron microscopic analysis; type: functional, cell-based; settings: dose 0.5-2 µM
MCF7 [14] = test: Induction of cell cycle arrest in human MCF7 cells assessed as G0-G1 phase cells at 2 uM incubated for 24 hrs by propidium iodide staining based flow cytometry analysis (reference value: 71.30 %); type: functional
MCF7 [15] = test: Induction of cell cycle arrest in human MCF7 cells assessed as accumulation of S phase cells at 2 uM incubated for 24 hrs by propidium iodide staining based flow cytometry analysis (reference value: 27.84 %); type: functional
MCF7 [16] = test: Induction of cell cycle arrest in human MCF7 cells assessed as G2/M phase cells at 2 uM incubated for 24 hrs by propidium iodide staining based flow cytometry analysis (reference value: 0.86 %); type: functional
MCF7 [17] = test: Induction of cell cycle arrest in human MCF7 cells assessed as G0-G1 phase cells at 4 uM incubated for 24 hrs by propidium iodide staining based flow cytometry analysis (reference value: 71.30 %); type: functional
MCF7 [18] = test: Induction of cell cycle arrest in human MCF7 cells assessed as accumulation of S phase cells at 4 uM incubated for 24 hrs by propidium iodide staining based flow cytometry analysis (reference value: 27.84 %); type: functional
MCF7 [19] = test: Induction of cell cycle arrest in human MCF7 cells assessed as G2/M phase cells at 4 uM incubated for 24 hrs by propidium iodide staining based flow cytometry analysis (reference value: 0.86 %); type: functional
MCF7 [20] = test: Induction of cell cycle arrest in human MCF7 cells assessed as downregulation of CDK2 expression at 1 to 4 uM measured upto 24 hrs by Western blot analysis relative to control; type: functional, cell-based; settings: dose 1-4 µM
MCF7 [21] = test: Induction of cell cycle arrest in human MCF7 cells assessed as downregulation of cyclin E expression at 1 to 4 uM measured upto 24 hrs by Western blot analysis relative to control; type: functional, cell-based; settings: dose 1-4 µM
MDA-MB-231 [22] = test: Induction of cell cycle arrest in human MDA-MB-231 cells assessed as G0-G1 phase cells at 0.5 uM incubated for 24 hrs by propidium iodide staining based flow cytometry analysis (reference value: 66.84 %); type: functional
MDA-MB-231 [23] = test: Induction of cell cycle arrest in human MDA-MB-231 cells assessed as accumulation of S phase cells at 0.5 uM incubated for 24 hrs by propidium iodide staining based flow cytometry analysis (reference value: 28.71 %); type: functional
MDA-MB-231 [24] = test: Induction of cell cycle arrest in human MDA-MB-231 cells assessed as G2/M phase cells at 0.5 uM incubated for 24 hrs by propidium iodide staining based flow cytometry analysis (reference value: 4.44 %); type: functional
MDA-MB-231 [25] = test: Induction of cell cycle arrest in human MDA-MB-231 cells assessed as G0-G1 phase cells at 1 uM incubated for 24 hrs by propidium iodide staining based flow cytometry analysis (reference value: 66.84 %); type: functional
MDA-MB-231 [26] = test: Induction of cell cycle arrest in human MDA-MB-231 cells assessed as accumulation of S phase cells at 1 uM incubated for 24 hrs by propidium iodide staining based flow cytometry analysis (reference value: 28.71 %); type: functional
MDA-MB-231 [27] = test: Induction of cell cycle arrest in human MDA-MB-231 cells assessed as G2/M phase cells at 1 uM incubated for 24 hrs by propidium iodide staining based flow cytometry analysis (reference value: 4.44 %); type: functional
MDA-MB-231 [28] = test: Induction of cell cycle arrest in human MDA-MB-231 cells assessed as G0-G1 phase cells at 2 uM incubated for 24 hrs by propidium iodide staining based flow cytometry analysis (reference value: 66.84 %); type: functional
MDA-MB-231 [29] = test: Induction of cell cycle arrest in human MDA-MB-231 cells assessed as accumulation of S phase cells at 2 uM incubated for 24 hrs by propidium iodide staining based flow cytometry analysis (reference value: 28.71 %); type: functional
MDA-MB-231 [30] = test: Induction of cell cycle arrest in human MDA-MB-231 cells assessed as G2/M phase cells at 2 uM incubated for 24 hrs by propidium iodide staining based flow cytometry analysis (reference value: 4.44 %); type: functional
MDA-MB-231 [31] = test: Induction of cell cycle arrest in human MDA-MB-231 cells assessed as downregulation of CDK2 expression at 0.5 to 2 uM measured upto 24 hrs by Western blot analysis relative to control; type: functional, cell-based; settings: dose 0.5-2 µM
MDA-MB-231 [32] = test: Induction of cell cycle arrest in human MDA-MB-231 cells assessed as downregulation of cyclin E expression at 0.5 to 2 uM measured upto 24 hrs by Western blot analysis relative to control; type: functional, cell-based; settings: dose 0.5-2 µM
MCF7 [33] = test: Induction of apoptosis in human MCF7 cells assessed as chromatin condensation at 1 to 4 uM incubated for 24 hrs by Hoechst 33258 staining based light microscopic analysis; type: functional, cell-based; settings: dose 1-4 µM
MCF7 [34] = test: Induction of apoptosis in human MCF7 cells assessed as nuclear condensation at 1 to 4 uM incubated for 24 hrs by Hoechst 33258 staining based light microscopic analysis; type: functional, cell-based; settings: dose 1-4 µM
MCF7 [35] = test: Induction of apoptosis in human MCF7 cells assessed as apoptotic bodies at 1 to 4 uM incubated for 24 hrs by Hoechst 33258 staining based light microscopic analysis; type: functional, cell-based; settings: dose 1-4 µM
MCF7 [36] = test: Induction of apoptosis in human MCF7 cells assessed as increase in total apoptotic rate at 1 to 4 uM incubated for 24 hrs by propidium iodide staining based flow cytometric analysis; type: functional, cell-based; settings: dose 1-4 µM
MDA-MB-231 [37] = test: Induction of apoptosis in human MDA-MB-231 cells assessed as chromatin condensation at 0.5 to 2 uM incubated for 24 hrs by Hoechst 33258 staining based light microscopic analysis; type: functional, cell-based; settings: dose 0.5-2 µM
MDA-MB-231 [38] = test: Induction of apoptosis in human MDA-MB-231 cells assessed as nuclear condensation at 0.5 to 2 uM incubated for 24 hrs by Hoechst 33258 staining based light microscopic analysis; type: functional, cell-based; settings: dose 0.5-2 µM
MDA-MB-231 [39] = test: Induction of apoptosis in human MDA-MB-231 cells assessed as apoptotic bodies at 0.5 to 2 uM incubated for 24 hrs by Hoechst 33258 staining based light microscopic analysis; type: functional, cell-based; settings: dose 0.5-2 µM
MDA-MB-231 [40] = test: Induction of apoptosis in human MDA-MB-231 cells assessed as increase in total apoptotic rate at 0.5 to 2 uM incubated for 24 hrs by propidium iodide staining based flow cytometry analysis relative to control; type: functional, cell-based; settings: dose 0.5-2 µM
MCF7 [41] = test: Induction of apoptosis in human MCF7 cells assessed as decrease in Bcl-2 level at 1 to 4 uM measured upto 24 hrs by Western blot analysis; type: functional, cell-based; settings: dose 1-4 µM
MCF7 [42] = test: Induction of apoptosis in human MCF7 cells assessed as increase in cleaved caspase-9 level at 1 to 4 uM measured upto 24 hrs by Western blot analysis; type: functional, cell-based; settings: dose 1-4 µM
MCF7 [43] = test: Induction of apoptosis in human MCF7 cells assessed as increase in cleaved caspase-3 level at 1 to 4 uM measured upto 24 hrs by Western blot analysis; type: functional, cell-based; settings: dose 1-4 µM
MCF7 [44] = test: Induction of apoptosis in human MCF7 cells assessed as increase in Bax level at 1 to 4 uM measured upto 24 hrs by Western blot analysis; type: functional, cell-based; settings: dose 1-4 µM
MDA-MB-231 [45] = test: Induction of apoptosis in human MDA-MB-231 cells assessed as decrease in Bcl-2 level at 0.5 to 2 uM measured upto 24 hrs by Western blot analysis; type: functional, cell-based; settings: dose 0.5-2 µM
MDA-MB-231 [46] = test: Induction of apoptosis in human MDA-MB-231 cells assessed as increase in cleaved caspase-9 level at 0.5 to 2 uM measured upto 24 hrs by Western blot analysis; type: functional, cell-based; settings: dose 0.5-2 µM
MDA-MB-231 [47] = test: Induction of apoptosis in human MDA-MB-231 cells assessed as increase in cleaved caspase-3 level at 0.5 to 2 uM measured upto 24 hrs by Western blot analysis; type: functional, cell-based; settings: dose 0.5-2 µM
MDA-MB-231 [48] = test: Induction of apoptosis in human MDA-MB-231 cells assessed as increase in Bax level at 0.5 to 2 uM measured upto 24 hrs by Western blot analysis; type: functional, cell-based; settings: dose 0.5-2 µM
MCF7 [49] = test: Inhibition of PI3K phosphorylation in human MCF7 cells at 1 to 4 uM by Western blot analysis; type: cell-based; settings: dose 1-4 µM
MCF7 [50] = test: Inhibition of AKT phosphorylation in human MCF7 cells at 1 to 4 uM by Western blot analysis; type: cell-based; settings: dose 1-4 µM
MDA-MB-231 [51] = test: Inhibition of PI3K phosphorylation in human MDA-MB-231 cells at 0.5 to 2 uM by Western blot analysis; type: cell-based; settings: dose 0.5-2 µM
MDA-MB-231 [52] = test: Inhibition of AKT phosphorylation in human MDA-MB-231 cells at 0.5 to 2 uM by Western blot analysis; type: cell-based; settings: dose 0.5-2 µM

Compound: COc1cc2cc(Oc3ccc4ccc(=O)oc4c3)c(=O)oc2cc1O [DAPHNORETIN]
- Activity (MCF7 [1]): 1.92%
- Activity (MCF7 [2]): 38.59%
- Activity (MCF7 [3]): 59.49%
- IC50 (MCF7 [4]): 2000 nM
- IC50 (MDA-MB-231 [5]): 1000 nM
- Activity (MCF7 [6]): Active
- Activity (MDA-MB-231 [7]): Active
- Activity (MCF7 [8]): Active
- Activity (MDA-MB-231 [9]): Active
- Activity (MCF7 [10]): Active
- Activity (MDA-MB-231 [11]): Active
- Activity (MCF7 [12]): Active
- Activity (MDA-MB-231 [13]): Active
- Activity (MCF7 [14]): 50.95%
- Activity (MCF7 [15]): 43.73%
- Activity (MCF7 [16]): 5.32%
- Activity (MCF7 [17]): 51.27%
- Activity (MCF7 [18]): 46.53%
- Activity (MCF7 [19]): 2.2%
- Activity (MCF7 [20]): Active
- Activity (MCF7 [21]): Active
- Activity (MDA-MB-231 [22]): 53.37%
- Activity (MDA-MB-231 [23]): 37.3%
- Activity (MDA-MB-231 [24]): 9.33%
- Activity (MDA-MB-231 [25]): 46%
- Activity (MDA-MB-231 [26]): 45.58%
- Activity (MDA-MB-231 [27]): 8.43%
- Activity (MDA-MB-231 [28]): 36.99%
- Activity (MDA-MB-231 [29]): 47.72%
- Activity (MDA-MB-231 [30]): 15.29%
- Activity (MDA-MB-231 [31]): Active
- Activity (MDA-MB-231 [32]): Active
- Activity (MCF7 [33]): Active
- Activity (MCF7 [34]): Active
- Activity (MCF7 [35]): Active
- Activity (MCF7 [36]): Active
- Activity (MDA-MB-231 [37]): Active
- Activity (MDA-MB-231 [38]): Active
- Activity (MDA-MB-231 [39]): Active
- Activity (MDA-MB-231 [40]): Active
- Activity (MCF7 [41]): Active
- Activity (MCF7 [42]): Active
- Activity (MCF7 [43]): Active
- Activity (MCF7 [44]): Active
- Activity (MDA-MB-231 [45]): Active
- Activity (MDA-MB-231 [46]): Active
- Activity (MDA-MB-231 [47]): Active
- Activity (MDA-MB-231 [48]): Active
- inhibition (MCF7 [49]): Active
- inhibition (MCF7 [50]): Active
- inhibition (MDA-MB-231 [51]): Active
- inhibition (MDA-MB-231 [52]): Active
